Laboratory results as given in patent US6087355A, “Cephalosporin antibiotics” (Microcide Pharmaceuticals, Inc., priority 1996, dated 2000).
Values after ≈ are worked out from the molar mass of the structure shown. Where a name gives a salt, the structure may show the parent alone.

Legend:
[1] = tested on: E. faecalis VanB(Van^R); assay: In vitro MIC, agar dilution; type: cell-based; conditions: Enterococcus faecalis, read-out: minimum inhibitory concentration (MIC)
In short: (§1)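 Spots of about 10^4 cfu of log-phase culture were applied, and plates were incubated 16-20 h at 35-36 °C. MIC was the lowest concentration inhibiting growth.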

[2] = tested on: P. aeruginosa ATCC 27853; assay: In vitro MIC, agar dilution; type: cell-based; conditions: Pseudomonas aeruginosa, ATCC27853, read-out: minimum inhibitory concentration (MIC)
In short: as §1

[3] = tested on: S. aureus 76(Meth^R)(lac^+); assay: In vitro MIC, agar dilution; type: cell-based; conditions: Staphylococcus aureus, read-out: minimum inhibitory concentration (MIC)
In short: as §1

[4] = tested on: E. faecium A491(Amp^R); assay: In vitro MIC, agar dilution; type: cell-based; conditions: Enterococcus faecium, read-out: minimum inhibitory concentration (MIC)
In short: as §1

[5] = tested on: S. aureus PC1(Meth^S)(lac^+); assay: In vitro MIC, agar dilution; type: cell-based; conditions: Staphylococcus aureus, read-out: minimum inhibitory concentration (MIC)
In short: as §1

[6] = tested on: S. aureus Spain #356(Meth^R); assay: In vitro MIC, agar dilution; type: cell-based; conditions: Staphylococcus aureus, read-out: minimum inhibitory concentration (MIC)
In short: as §1

[7] = tested on: E. faecalis ATCC 29212; assay: In vitro MIC, agar dilution; type: cell-based; conditions: Enterococcus faecalis, ATCC29212, read-out: minimum inhibitory concentration (MIC)
In short: as §1

[8] = tested on: S. haemolyticus 05(Meth^R); assay: In vitro MIC, agar dilution; type: cell-based; conditions: Staphylococcus haemolyticus, read-out: minimum inhibitory concentration (MIC)
In short: as §1

[9] = tested on: E. coli ATCC 25992; assay: In vitro MIC, agar dilution; type: cell-based; conditions: Escherichia coli, ATCC25992, read-out: minimum inhibitory concentration (MIC)
In short: as §1

[10] = tested on: E. faecium ATCC 35667; assay: In vitro MIC, agar dilution; type: cell-based; conditions: Enterococcus faecium, ATCC35667, read-out: minimum inhibitory concentration (MIC)
In short: as §1

[11] = tested on: S. aureus ATCC 29213; assay: In vitro MIC, agar dilution; type: cell-based; conditions: Staphylococcus aureus, ATCC29213, read-out: minimum inhibitory concentration (MIC)
In short: as §1

[12] = tested on: E. faecium VanA(Van^R); assay: In vitro MIC, agar dilution; type: cell-based; conditions: Enterococcus faecium, read-out: minimum inhibitory concentration (MIC)
In short: as §1

[13] = tested on: S. aureus ATCC 33593(Meth^R); assay: In vitro MIC, agar dilution; type: cell-based; conditions: Staphylococcus aureus, ATCC33593, read-out: minimum inhibitory concentration (MIC)
In short: as §1

[14] = tested on: S. aureus ATCC 13709(Meth^S); assay: In vitro MIC, agar dilution; type: cell-based; conditions: Staphylococcus aureus, ATCC13709, S. aureus ATCC 13709(Meth^S); read-out: minimum inhibitory concentration (MIC)
In short: as §1

[15] = tested on: S. aureus strain ATCC 13709 (methicillin-susceptible); assay: Murine model for lethal bacteremic peritonitis; type: in vivo, female Swiss-Webster mice; conditions: Staphylococcus aureus, ATCC13709, SC, 72 h; for responders at 0.3125 mg/kg / responders at 0.625 mg/kg / responders at 2.5 mg/kg / responders at 5 mg/kg: read-out: Survivors; for responders at 1.25 mg/kg: read-out: Survivors (converted); for ED50: two equal doses, IP challenge, read-out: ED50
Description: Groups of 5 female Swiss-Webster mice (Simonsen, Gilroy, Calif.) each are challenged by the intraperitoneal (IP) route with tenfold increments of a bacterial inoculum. This permits calculation of the mean lethal dose (LD50) and the LD100. For preliminary evaluation of a new antibiotic, mice are challenged IP with an LD100 titer of bacteria. In two equal doses administered at the time of bacterial challenge and 2 hours later, groups of 10 mice each are treated subcutaneously with two-fold increments of the test drug and an antibiotic of known efficacy in mice and humans (i.e., positive control). Mice are observed for 72 h. Those alive at 72 h are considered long term survivors. The total drug dose in mg/kg that protects 50% of mice in a group from death is termed the mean protective dose (PD50). PD50 s are similarly determined for several pathogens. The quantitative endpoints for the new drug are then compared with those obtained with reference antibiotics.
Six ten-fold dilutions of inoculum suspended in 0.5 mL of sterilized 7% hog gastric mucin (Sigma) are injected IP in groups of 5 mice each. A control group of 5 mice receive mucin alone. Mice are observed for 72 h. Those alive at 72 h are considered long term survivors. The mean lethal dose (LD50) and 100% lethal dose (LD100) are determined by the probit test.
For antibiotic efficacy studies, mice are challenged IP with bacterial titers that will afford an LD100 for the test strain. In two equal doses administered at the time of bacterial challenge and 2 hours later, groups of 10 mice each are treated by the subcutaneous route (SC) with twofold increments of the test antibiotic; another group is treated similarly with a reference antibiotic of known efficacy in animals and man. Drug doses can range from 0.01 to 512 mg/kg. If the drug is poorly soluble, Tween 20 or propylene glycol will be employed to solubilize the drug. Animals are observed for 72 h. The 50% protective dose (PD50) is calculated in mg/kg by the probit method. The PD50 is the same as the 50% effective dose (ED50) and the 50% curative dose (CD50). Samples of blood from the hearts of all animals that die and from half the mice that survive are cultured on brain-heart infusion agar. Animals that received a protective dosage of the test drug will be alive at 72 h, although they may appear moderately ill to very ill during the observation period. […] Most of these mice will die within 6 to 48 h. Those alive at 72 h will be considered long term survivors.
(Compound numbers correspond to those in MIC tables; data reported for challenge with methicillin-susceptible S. aureus strain ATCC 13709.)

[16] = tested on: S. aureus Col(Meth^R)(lac^-); assay: In vitro MIC, agar dilution; type: cell-based; conditions: Staphylococcus aureus, read-out: minimum inhibitory concentration (MIC)
In short: (§2)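 Two-fold dilutions (128 to ≤0.25 μg/mL, in duplicate) were poured into Mueller-Hinton agar. Log-phase broth cultures were spot-inoculated at about 10^4 cfu per spot and incubated 35-36°C for 16-20 hours; the MIC was the lowest concentration inhibiting growth. Col is a high-level PBP2a producer; Col 8A is its isogenic PBP2a-lacking partner.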

[17] = tested on: S. aureus Col8A(Meth^S)(lac^-); assay: In vitro MIC, agar dilution; type: cell-based; conditions: Staphylococcus aureus; S. aureus Col8A(Meth^S)(lac^-); read-out: minimum inhibitory concentration (MIC)
In short: as §2

SMILES | MIC [1] [µg/mL] | MIC [2] [µg/mL] | MIC [3] [µg/mL] | MIC [4] [µg/mL] | MIC [5] [µg/mL] | MIC [6] [µg/mL] | MIC [7] [µg/mL] | MIC [8] [µg/mL] | MIC [9] [µg/mL] | MIC [10] [µg/mL] | MIC [11] [µg/mL] | MIC [12] [µg/mL] | MIC [13] [µg/mL] | MIC [14] [µg/mL] | responders at 0.3125 mg/kg [15] [%] | responders at 0.625 mg/kg [15] [%] | responders at 1.25 mg/kg [15] [%] | responders at 2.5 mg/kg [15] [%] | responders at 5 mg/kg [15] [%] | MIC [16] [µg/mL] | other results
NC(=O)CSCc1cnccc1SC1=C(C(=O)O)N2C(=O)[C@@H](NC(=O)/C(=N\O)c3nc(N)sc3Cl)[C@H]2SC1 [Cmpd 39, (7R)-7-[(Z)-2-(2-amino-5-chlorothiazol-4-yl)-2-(hydroxyimino)acetamido]-3-(3-carboxamidomethylthiomethylpyrid-4-ylthio)-3-cephem-4-carboxylic acid] | 0.25 (≈ 0.406 µM) | > 32 | 4 (≈ 6.49 µM) | 32 (≈ 51.9 µM) | 0.5 (≈ 0.812 µM) | 4 (≈ 6.49 µM) | 0.25 (≈ 0.406 µM) | 8 (≈ 13 µM) | 8 (≈ 13 µM) | 1 (≈ 1.62 µM) | 0.25 (≈ 0.406 µM) | 2 (≈ 3.25 µM) | 4 (≈ 6.49 µM) | 0.25 (≈ 0.406 µM) | 10 | 30 | 60 | 60 | 100 | 2 (≈ 3.25 µM) | ED50 [15]: 1.15 mg/kg
NCCCCCOCc1cnccc1SC1=C(C(=O)O)N2C(=O)[C@@H](NC(=O)/C(=N\O)c3nc(N)sc3Cl)[C@H]2SC1 [Cmpd 44, (7R)-7-[(Z)-2-(2-amino-5-chlorothiazol-4-yl)-2-(hydroxyimino)acetamido]-3-(3-(5-aminopentyloxymethyl)pyrid-4-ylthio)-3-cephem-4-carboxylate, trifluoroacetic acid salt] |  | > 32 | 4 | 16 | 2 | 4 | 0.13 | 8 | 8 | 4 | 0.5 | 2 | 4 | 2 |  |  |  |  |  | 4 | MIC [17]: 0.5 µg/mL
Nc1nc(/C(=N/O)C(=O)N[C@@H]2C(=O)N3C(C(=O)O)=C(Sc4ccncc4CSCC(N)CO)CS[C@H]23)c(Cl)s1 (stereo partly drawn) [Cmpd 56, (7R)-7-[(Z)-2-(2-amino-5-chlorothiazol-4-yl)-2-(hydroxyimino)acetamido]-3-[3-(2RS-2-amino-3-hydroxyprop-1-ylthiomethyl)pyrid-4-ylthio]-3-cephem-4-carboxylate, trifluoroacetic acid salt] | 2 | > 32 | 2 | 8 | 0.5 | 2 | 0.13 | 4 | 8 | 1 | 0.5 | 1 | 2 | 0.25 | 20 | 30 | 30 | 80 | 80 | 2 | ED50 [15]: 1.23 mg/kg
CNCCNCCSCc1cnccc1SC1=C(C(=O)O)N2C(=O)[C@@H](NC(=O)/C(=N\O)c3nc(N)sc3Cl)[C@H]2SC1 [Cmpd 57, (7R)-7-[(Z)-2-(2-amino-5-chlorothiazol-4-yl)-2-(hydroxyimino)acetamido]-3-(3-(N-methylaminoethylaminoethylthiomethyl)pyrid-4-ylthio)-3-cephem-4-carboxylate, trifluoroacetic acid salt] | 4 | > 32 | 4 | 16 | 1 | 4 | 0.13 | 8 | 4 | 1 | 1 | 2 | 4 | 0.5 | 40 | 40 | 40 | 50 | 90 | 4 | ED50 [15]: 1.08 mg/kg
